Results published in US20110059482A1, “Sampling Kit” (priority 2008, published 2011).

What was measured:
[1] = Storage stability / shelf life of antibiotics, tablet and Herogel components; type: physicochemical; details: in liquid form, at about 8° C. (refrigerator)
Description: Background: Herogel is a selective growth medium comprising aztreonam and colistin to inhibit the growth of Enterobacteriaceae. Cefoxitin is added to the medium in order to inhibit the growth of MSSA (Methicillin Sensitive Staphylococcus Aureus). Cefoxitin has a short shelf life if it is added to the medium upon manufacturing of the medium and together with other antibiotics. Tests performed at Karolinska University Hospital Laboratory have shown that the activity of cefoxitin in liquid form is reduced after 14 days at about 8° C. (i.e. in a refrigerator) and that aztreonam and colistin if they are added to the growth medium are active for at least 4 months if stored at a temperature of about 8° C. (i.e. in a refrigerator). In order to prolong the shelf life of the Herogel, cefoxitin is incorporated in the tablet in Batch 1. The hypothesis is that the shelf life of the herogel will be prolonged if the tablet is added immediately after the sampling. The shelf life of the tablet is estimated to about 12 months in room temperature. The other components of the Herogel medium have a documented shelf life of at least 6 months upon storage in a refrigerator.

MSSA = details: according to the referens group for questions related to antibiotic (RAF); cited from earlier work

CO[C@@]1(NC(=O)Cc2cccs2)C(=O)N2C(C(=O)O)=C(COC(N)=O)CS[C@@H]21 [cefoxitin]
storage time after which the activity is reduced [1]: 14 days
minimal inhibitory concentration (MIC) for MSSA (MSSA): 4 µg/mL
